Assays:
Type in all cases: cell-based
Raji [1] = assay: Inhibition of TPA-induced EBV-early antigen activation in human Raji cells at 1000 molar ratio after 48 hrs relative to TPA; set-up: scale not given: the % may be the effect or the level left; conditions: human gammaherpesvirus 4
Raji [2] = assay: Inhibition of TPA-induced EBV-early antigen activation in human Raji cells at 500 molar ratio after 48 hrs relative to TPA; set-up: scale not given: the % may be the effect or the level left; conditions: human gammaherpesvirus 4
Raji [3] = assay: Inhibition of TPA-induced EBV-early antigen activation in human Raji cells at 100 molar ratio after 48 hrs relative to TPA; set-up: scale not given: the % may be the effect or the level left; conditions: human gammaherpesvirus 4
Raji [4] = assay: Inhibition of TPA-induced EBV-early antigen activation in human Raji cells at 10 molar ratio after 48 hrs relative to TPA; set-up: scale not given: the % may be the effect or the level left; conditions: human gammaherpesvirus 4
[5] = Cytotoxicity against human Raji cells assessed as cell viability at 1000 molar ratio after 48 hrs by trypan blue assay; conditions: read-out: Activity

CC(C)=CCC[C@]1(C)CC[C@]2(C)C3=CC[C@H]4C(C)(C)[C@@H](O)CC[C@]4(C)[C@H]3CC[C@@]2(C)C1 showed an Activity (Raji [1]) of 2.2%, an Activity (Raji [2]) of 33.8% and an Activity (Raji [3]) of 79.4%. It also gave an Activity (Raji [4]) of 97.2% and a viability at 48 h, 1000 molar ratio [5] of 70%.
CC1=C(/C=C/C(C)=C/C=C/C(C)=C/C=C/C=C(C)/C=C/C=C(C)/C=C/C2=C(C)CCCC2(C)C)C(C)(C)CCC1 gave an Activity (Raji [1]) of 8.6% and an Activity (Raji [4]) of 100%.
For CC(C)=CCC[C@@H](C)[C@@H]1CC[C@]2(C)C3=CC[C@H]4C(C)(C)[C@@H](O)CC[C@]4(C)C3=CC[C@@]12C [ANTIQUOL C], the Activity (Raji [1]) was 0%, the Activity (Raji [2]) was 28.2% and the Activity (Raji [3]) was 75%. The Activity (Raji [4]) was 92.8% and the viability at 48 h, 1000 molar ratio [5] was 70%.
For CC(C)=CCC/C(C)=C/CC/C(C)=C/CC/C=C(\C)CC[C@@H]1C(C)=CC[C@H](O)C1(C)C [CAMELLIOL C], the Activity (Raji [1]) was 20.1%, the Activity (Raji [2]) was 51.5% and the Activity (Raji [3]) was 86.3%. For the same molecule, the Activity (Raji [4]) was 100% and the viability at 48 h, 1000 molar ratio [5] was 70%.
For CC(C)=CCC[C@@H](C)[C@@H]1CC[C@]2(C)C3=C(CC[C@@]12C)[C@@]1(C)CC[C@H](O)C(C)(C)[C@@H]1CC3 [EUPHOL], the Activity (Raji [1]) was 0%, the Activity (Raji [2]) was 29.8% and the Activity (Raji [3]) was 75.7%. The Activity (Raji [4]) was 93.5% and the viability at 48 h, 1000 molar ratio [5] was 70%.
Work on C=C(CC[C@H](C)[C@@H]1CC[C@]2(C)C3=C(CC[C@@]12C)[C@@]1(C)CC[C@H](O)C(C)(C)[C@@H]1CC3)C(C)C [EUPHORBOL] yielded an Activity (Raji [1]) of 0%, an Activity (Raji [2]) of 32.6% and an Activity (Raji [3]) of 77.9%. The Activity (Raji [4]) was 95.8% and the viability at 48 h, 1000 molar ratio [5] was 70%.
In the case of CC(C)=CCC[C@@H](C)[C@@H]1CC[C@]2(C)[C@H]3CCC(=C(C)C)[C@@H](CCCO)[C@]3(C)CC[C@@]12C [ISOHELIANOL], the Activity (Raji [1]) is reported as 0%, the Activity (Raji [2]) is reported as 25.8% and the Activity (Raji [3]) is reported as 72.4%. The Activity (Raji [4]) was 95.7% and the viability at 48 h, 1000 molar ratio [5] was 70%.

— ChEMBL document CHEMBL1159314, “Eupha-7,9(11),24-trien-3beta-ol ("antiquol C") and other triterpenes from Euphorbia antiquorum latex and their inhibitory effects on Epstein-Barr virus activation” (J Nat Prod, 2002)
